Data on 90 compounds can be found in ChEMBL document CHEMBL3046571, “QSAR of 2,4-diphenyl-1,3-oxazolines for ovicidal activity against the two-spotted spider mite Tetranychus urticae” (2006).

This assay concerns Tetranychus urticae. As to the kind of experiment: Acaricidal activity against Tetranychus urticae (two-spotted spider mite) in compound treated kidney bean leaf assessed as mortality of egg at 24 degC measured after 1 week. The note with it: 168 h. Format: functional.
For `Fc1cccc(F)c1C1=NC(c2ccc(Cl)cc2Cl)CO1` (stereo not given), the LC50 was 0.151 µM.

For `CCCCCCCc1ccc(C2COC(c3c(F)cccc3F)=N2)c(F)c1` (stereo not given), the LC50 was 0.00132 µM.

On to `CCCCCCCCCCc1ccc(C2COC(c3c(F)cccc3F)=N2)c(OC)c1` (stereo not given), for which the LC50 is 0.117 µM.

For `Fc1ccc(C2COC(c3c(F)cccc3F)=N2)cc1Cl` (stereo not given), the LC50 was 1.62 µM.

For the compound `CC(C)Sc1ccc(C2COC(c3c(F)cccc3F)=N2)cc1` (stereo not given), the LC50 was 1.51 µM.

Take `CCc1cccc(C2COC(c3c(F)cccc3F)=N2)c1` (stereo not given): the LC50 was 174 µM.

Regarding `CCOc1cc(C(C)C)ccc1C1COC(c2c(F)cccc2F)=N1` (stereo not given), the LC50 is 0.145 µM.

As to `CCc1ccc(C2COC(c3c(F)cccc3F)=N2)c(Cl)c1` (stereo not given), the LC50 is 0.0155 µM.

In the case of `CCCCCCCCCCCCCOc1ccc(C2COC(c3c(F)cccc3F)=N2)cc1` (stereo not given), the 50% lethal concentration (LC50) is 0.011 µM.

Regarding `Fc1ccc(C2COC(c3c(F)cccc3F)=N2)cc1` (stereo not given), the LC50 was 1.82 µM.

Turning to `CCOc1cc(C(C)(C)C)ccc1C1COC(c2c(F)cccc2F)=N1` (stereo not given) [ETOXAZOLE], the LC50 was 0.0138 µM.

Turning to `Fc1ccc(C2COC(c3c(F)cccc3F)=N2)c(Cl)c1` (stereo not given), the LC50 is 1.62 µM.

As to `CCCCCCCCc1ccc(C2COC(c3c(F)cccc3F)=N2)cc1` (stereo not given), the LC50 was 0.00135 µM.

As to `Fc1cccc(F)c1C1=NC(c2ccccc2Cl)CO1` (stereo not given), the LC50 is 1.7 µM.

Consider `CC(C)c1ccc(C2COC(c3c(F)cccc3F)=N2)cc1` (stereo not given), for which the LC50 was 0.0166 µM.

As to `CCCOc1cc(C(C)C)ccc1C1COC(c2c(F)cccc2F)=N1` (stereo not given), the LC50 is 0.00138 µM.

Regarding `CCCCCCc1ccc(C2COC(c3c(F)cccc3F)=N2)cc1F` (stereo not given), the LC50 was 1.38 µM.

On to `CCCCCCCCCCCCCCOc1ccc(C2COC(c3c(F)cccc3F)=N2)cc1` (stereo not given), for which the median lethal concentration (LC50) is 0.107 µM.

Consider `CCCCCc1ccc(C2COC(c3c(F)cccc3F)=N2)c(OCCC)c1` (stereo not given), for which the 50% lethal concentration (LC50) is 0.0129 µM.

`CCCCCCCCCSc1ccc(C2COC(c3c(F)cccc3F)=N2)cc1` (stereo not given): the LC50 is 0.12 µM.

Regarding `Cc1cccc(C2COC(c3c(F)cccc3F)=N2)c1` (stereo not given), the LC50 was 182 µM.

For the compound `COc1ccc(C2COC(c3c(F)cccc3F)=N2)cc1` (stereo not given), the LC50 is 17.4 µM.

Consider `CCCCCCCCCCOc1ccc(C2COC(c3c(F)cccc3F)=N2)cc1` (stereo not given), for which the LC50 was 0.0012 µM.

With `Fc1ccc(C2COC(c3c(F)cccc3F)=N2)c(F)c1` (stereo not given), the LC50 was 0.17 µM.

As to `CCCCCCCCc1ccc(C2COC(c3c(F)cccc3F)=N2)c(F)c1` (stereo not given), the LC50 is 0.00129 µM.

For `COc1cc(Cl)ccc1C1COC(c2c(F)cccc2F)=N1` (stereo not given), the LC50 was 1.55 µM.

For the compound `CCOc1cc(Cl)ccc1C1COC(c2c(F)cccc2F)=N1` (stereo not given), the LC50 is 1.48 µM.

With `CS(=O)(=O)c1ccc(C2COC(c3c(F)cccc3F)=N2)cc1` (stereo not given), the LC50 was 1480 µM.

On to `CCc1ccccc1C1COC(c2c(F)cccc2F)=N1` (stereo not given), for which the LC50 was 17.4 µM.

With `CCCCCCCCCCc1ccc(C2COC(c3c(F)cccc3F)=N2)c(F)c1` (stereo not given), the LC50 is 0.012 µM.

`CCCCOc1ccc(C2COC(c3c(F)cccc3F)=N2)cc1` (stereo not given): the LC50 is 0.00151 µM.

With `Cc1cc(Cl)ccc1C1COC(c2c(F)cccc2F)=N1` (stereo not given), the LC50 was 1.62 µM.

Turning to `CCCCCCCCc1ccc(C2COC(c3c(F)cccc3F)=N2)c(Cl)c1` (stereo not given), the LC50 was 0.00123 µM.

Take `CCc1ccc(C2COC(c3c(F)cccc3F)=N2)cc1` (stereo not given): the LC50 is 0.0174 µM.

As for `CCCCCCCCOc1ccc(C2COC(c3c(F)cccc3F)=N2)cc1` (stereo not given), the LC50 was 0.00129 µM.

As for `Oc1ccc(C2COC(c3c(F)cccc3F)=N2)cc1` (stereo not given), the 50% lethal concentration (LC50) is 182 µM.

With `Fc1cccc(F)c1C1=NC(c2ccc(OC(F)(F)F)cc2)CO1` (stereo not given), the LC50 was 0.0144 µM.

As to `COc1ccccc1C1COC(c2c(F)cccc2F)=N1` (stereo not given), the 50% lethal concentration (LC50) was 174 µM.

For the compound `Fc1cccc(F)c1C1=NC(c2ccc(C(F)(F)F)cc2)CO1` (stereo not given), the LC50 is 0.151 µM.

As to `CCCCCCCCc1ccc(C2COC(c3c(F)cccc3F)=N2)c(C)c1` (stereo not given), the LC50 was 0.00129 µM.

On to `Cc1ccc(C2COC(c3c(F)cccc3F)=N2)c(C)c1` (stereo not given), for which the LC50 was 174 µM.

Turning to `CC(C)Cc1ccc(C2COC(c3c(F)cccc3F)=N2)cc1` (stereo not given), the LC50 is 0.00159 µM.

With `Cc1ccccc1C1COC(c2c(F)cccc2F)=N1` (stereo not given), the LC50 was 182 µM.

As for `CCOc1cc(F)ccc1C1COC(c2c(F)cccc2F)=N1` (stereo not given), the LC50 is 0.0155 µM.

`CCOc1ccccc1C1COC(c2c(F)cccc2F)=N1` (stereo not given): the LC50 was 166 µM.

As to `Fc1cc(C2COC(c3c(F)cccc3F)=N2)ccc1Cl` (stereo not given), the LC50 was 0.162 µM.

For the compound `Fc1cc(Cl)ccc1C1COC(c2c(F)cccc2F)=N1` (stereo not given), the LC50 was 0.00162 µM.

With `CC(C)Oc1ccc(C2COC(c3c(F)cccc3F)=N2)cc1` (stereo not given), the LC50 is 0.0158 µM.

As to `COc1cccc(C2COC(c3c(F)cccc3F)=N2)c1` (stereo not given), the LC50 was 17.4 µM.

As for `Fc1cccc(F)c1C1=NC(c2ccccc2)CO1` (stereo not given), the 50% lethal concentration (LC50) is 19.5 µM.

For `CSc1ccc(C2COC(c3c(F)cccc3F)=N2)cc1` (stereo not given), the LC50 is 1.62 µM.

With `Fc1cccc(F)c1C1=NC(c2ccc(Br)cc2)CO1` (stereo not given), the LC50 is 0.0148 µM.

As for `COc1cc(C(C)(C)C)ccc1C1COC(c2c(F)cccc2F)=N1` (stereo not given), the LC50 is 0.0144 µM.

Take `CCCCOc1cc(C(C)(C)C)ccc1C1COC(c2c(F)cccc2F)=N1` (stereo not given): the 50% lethal concentration (LC50) was 0.129 µM.

With `CCOc1ccc(C2COC(c3c(F)cccc3F)=N2)cc1` (stereo not given), the LC50 is 0.0166 µM.

As for `CCCCCCOc1cc(C(C)(C)C)ccc1C1COC(c2c(F)cccc2F)=N1` (stereo not given), the LC50 is 1.2 µM.

For `CCCCCCc1ccc(C2COC(c3c(F)cccc3F)=N2)c(F)c1` (stereo not given), the LC50 is 0.00138 µM.

As for `CCOc1cccc(C2COC(c3c(F)cccc3F)=N2)c1` (stereo not given), the LC50 was 16.6 µM.

For `CCCCCCCCCCCCc1ccc(C2COC(c3c(F)cccc3F)=N2)cc1` (stereo not given), the LC50 is 0.00118 µM.

Consider `C[Si](C)(C)c1ccc(C2COC(c3c(F)cccc3F)=N2)cc1` (stereo not given), for which the LC50 is 0.00151 µM.

For the compound `Fc1cccc(F)c1C1=NC(c2cccc(Cl)c2)CO1` (stereo not given), the 50% lethal concentration (LC50) is 17 µM.

`CCCCCCCCCCCCc1ccc(C2COC(c3c(F)cccc3F)=N2)c(F)c1` (stereo not given): the 50% lethal concentration (LC50) was 0.112 µM.

As for `CCCCc1ccc(C2COC(c3c(F)cccc3F)=N2)cc1` (stereo not given), the LC50 is 0.00159 µM.

Take `CC(C)Cc1ccc(C2COC(c3c(F)cccc3F)=N2)c(Cl)c1` (stereo not given): the LC50 is 0.00145 µM.

For the compound `Fc1ccc(C2COC(c3c(F)cccc3F)=N2)cc1F` (stereo not given), the LC50 was 1.7 µM.

As for `CN(C)c1ccc(C2COC(c3c(F)cccc3F)=N2)cc1` (stereo not given), the LC50 was 166 µM.

For `Fc1cccc(C2COC(c3c(F)cccc3F)=N2)c1` (stereo not given), the LC50 is 18.2 µM.

As to `COc1cc(F)ccc1C1COC(c2c(F)cccc2F)=N1` (stereo not given), the median lethal concentration (LC50) is 1.62 µM.

Take `Cc1ccc(C2COC(c3c(F)cccc3F)=N2)cc1C` (stereo not given): the LC50 was 17.4 µM.

`C[S+]([O-])c1ccc(C2COC(c3c(F)cccc3F)=N2)cc1` (stereo not given): the LC50 was 155 µM.

Consider `Fc1cccc(F)c1C1=NC(c2ccc(Cl)c(Cl)c2)CO1` (stereo not given), for which the LC50 was 1.51 µM.

Take `CCCCCc1ccc(C2COC(c3c(F)cccc3F)=N2)c(OCC)c1` (stereo not given): the LC50 was 0.00135 µM.

Take `CCCCCCCCCc1ccc(C2COC(c3c(F)cccc3F)=N2)c(OC)c1` (stereo not given): the LC50 was 0.012 µM.

Consider `Fc1cccc(F)c1C1=NC(c2ccc(OCC(F)(F)F)cc2)CO1` (stereo not given), for which the LC50 was 0.00141 µM.

For `Fc1ccccc1C1COC(c2c(F)cccc2F)=N1` (stereo not given), the LC50 was 18.2 µM.

With `CCCCCCc1ccc(C2COC(c3c(F)cccc3F)=N2)cc1Cl` (stereo not given), the LC50 is 1.32 µM.

On to `CCCCCCCCCCc1ccc(C2COC(c3c(F)cccc3F)=N2)cc1` (stereo not given), for which the 50% lethal concentration (LC50) was 0.00126 µM.

Take `CCCCCCCCCCc1ccc(C2COC(c3c(F)cccc3F)=N2)c(Cl)c1` (stereo not given): the LC50 is 1.15 µM.

For the compound `Cc1ccc(C2COC(c3c(F)cccc3F)=N2)cc1` (stereo not given), the LC50 is 1.82 µM.

As to `CCCCCCc1ccc(C2COC(c3c(F)cccc3F)=N2)c(Cl)c1` (stereo not given), the median lethal concentration (LC50) was 0.00132 µM.

Consider `CCCCCCc1ccc(C2COC(c3c(F)cccc3F)=N2)cc1` (stereo not given), for which the LC50 is 0.00145 µM.

On to `Fc1cccc(F)c1C1=NC(c2ccc(Cl)cc2)CO1` (stereo not given), for which the LC50 is 0.017 µM.

With `CCCCCCCCc1ccc(C2COC(c3c(F)cccc3F)=N2)c(OC)c1` (stereo not given), the LC50 was 0.126 µM.

With `CCCCCCCCCCCCc1ccc(C2COC(c3c(F)cccc3F)=N2)c(Cl)c1` (stereo not given), the LC50 is 1.07 µM.

For `CCCCOc1cc(F)ccc1C1COC(c2c(F)cccc2F)=N1` (stereo not given), the LC50 is 0.00145 µM.

As for `CCOc1cc(Br)ccc1C1COC(c2c(F)cccc2F)=N1` (stereo not given), the LC50 is 1.32 µM.

As for `CCCCCCCCCCCCCCCc1ccc(C2COC(c3c(F)cccc3F)=N2)cc1` (stereo not given), the LC50 was 0.0107 µM.

As to `CCc1ccc(C2COC(c3c(F)cccc3F)=N2)c(F)c1` (stereo not given), the median lethal concentration (LC50) was 1.62 µM.

On to `CCCOc1cc(C(C)(C)C)ccc1C1COC(c2c(F)cccc2F)=N1` (stereo not given), for which the LC50 was 0.0135 µM.

As for `CC(C)(C)c1ccc(C2COC(c3c(F)cccc3F)=N2)cc1` (stereo not given), the LC50 was 0.00159 µM.
